≈ marks a conversion by molar mass, not a printed value. Like-named read-outs stand apart in the source and are kept apart here.

This assay deals with strain Pyt^T. As to the kind of experiment: Antibiotic resistance by the Etest method (MIC). The conditions noted are these: for MIC: read-out: Minimal Inhibitory Concentration (MIC); for Level of resistance / sensitivity of strain Pyt^T to the antibiotic: EUCAST breakpoint table for Gram-negative anaerobes (Version 5.0). In kind it is cell-based, Akkermansia glycaniphilus. The protocol: Antibiotic resistance was determined using the Etest method for both ampicillin and vancomycin (bioMérieux, Marcy l'Étoile, France). The minimal inhibitory concentration (MIC) was determined after 48 hours of incubation. In more detail, strain Pyt^T was grown in mucin media and after reaching stationary phase 100 ul was plated onto BHI plates supplemented with 0.5% (v/v) hog gastric mucin (Type III, Sigma), and 0.05% (w/v) of cysteine-HCL (Sigma-ALdrich). Plates were incubated for 24-48 hours under strictly anaerobic conditions. The level of resistance was determined using the European Committee on Antimicrobial Susceptibility Testing (EUCAST) breakpoint table for interpretation of MICs for Gram-negative anaerobes (Version 5.0, valid from 2015-01-01).

With `CC1(C)S[C@@H]2[C@H](NC(=O)[C@H](N)c3ccccc3)C(=O)N2[C@H]1C(=O)O` [ampicillin], the MIC (Etest, BHI plates with 0.5% hog gastric mucin and 0.05% cysteine-HCl, strictly anaerobic, read after 48 hours) came out at 32 µg/mL (≈ 91.6 µM). The “Level of resistance / sensitivity of strain Pyt^T to the antibiotic” value (Etest) is “relatively resistant”. As for `O=C(N[C@H](CO)[C@H](O)c1ccc([N+](=O)[O-])cc1)C(Cl)Cl` [chloramphenicol], the “Level of resistance / sensitivity of strain Pyt^T to the antibiotic” value (Etest) is recorded as “sensitive”. Regarding `Cc1ncc([N+](=O)[O-])n1CCO` [metronidazole], under “Etest”, the “Level of resistance / sensitivity of strain Pyt^T to the antibiotic” value is “sensitive”. Turning to `CN[C@H](CC(C)C)C(=O)N[C@H]1C(=O)N[C@@H](CC(N)=O)C(=O)N[C@H]2C(=O)N[C@H]3C(=O)N[C@H](C(=O)N[C@H](C(=O)O)c4cc(O)cc(O)c4-c4cc3ccc4O)[C@H](O)c3ccc(c(Cl)c3)Oc3cc2cc(c3O[C@@H]2O[C@H](CO)[C@@H](O)[C@H](O)[C@H]2O[C@H]2C[C@](C)(N)[C@H](O)[C@H](C)O2)Oc2ccc(cc2Cl)[C@H]1O` [vancomycin], the MIC (48 h) was 24 µg/mL (≈ 16.6 µM). For the same molecule, the “Level of resistance / sensitivity of strain Pyt^T to the antibiotic” value (Etest) was “relatively resistant”.

In the case of cholistin, the “Level of resistance / sensitivity of strain Pyt^T to the antibiotic” value (Etest) is reported as “sensitive”.
